Results published in patent US20120136003A1, “COMPOUNDS, COMPOSITIONS AND METHODS COMPRISING 1,3,4-OXADIAZOLE DERIVATIVES” (Institute For Oneworld Health, priority 2009, published 2012).

Key:
[1] = target: T1, CFTR (Homo sapiens, UniProt P13569); experiment: CHO-CFTR assay (FLIPR assay); assay type: cell-based; design: expressed in transfected cells; host or cells: CHO-K1 cells, stably transfected; conditions: same assay conditions (FLIPR assay); read-out: IC50 value in the CHO-CFTR cell line
Target sequence in this assay (P13569 whole entry, species assumed): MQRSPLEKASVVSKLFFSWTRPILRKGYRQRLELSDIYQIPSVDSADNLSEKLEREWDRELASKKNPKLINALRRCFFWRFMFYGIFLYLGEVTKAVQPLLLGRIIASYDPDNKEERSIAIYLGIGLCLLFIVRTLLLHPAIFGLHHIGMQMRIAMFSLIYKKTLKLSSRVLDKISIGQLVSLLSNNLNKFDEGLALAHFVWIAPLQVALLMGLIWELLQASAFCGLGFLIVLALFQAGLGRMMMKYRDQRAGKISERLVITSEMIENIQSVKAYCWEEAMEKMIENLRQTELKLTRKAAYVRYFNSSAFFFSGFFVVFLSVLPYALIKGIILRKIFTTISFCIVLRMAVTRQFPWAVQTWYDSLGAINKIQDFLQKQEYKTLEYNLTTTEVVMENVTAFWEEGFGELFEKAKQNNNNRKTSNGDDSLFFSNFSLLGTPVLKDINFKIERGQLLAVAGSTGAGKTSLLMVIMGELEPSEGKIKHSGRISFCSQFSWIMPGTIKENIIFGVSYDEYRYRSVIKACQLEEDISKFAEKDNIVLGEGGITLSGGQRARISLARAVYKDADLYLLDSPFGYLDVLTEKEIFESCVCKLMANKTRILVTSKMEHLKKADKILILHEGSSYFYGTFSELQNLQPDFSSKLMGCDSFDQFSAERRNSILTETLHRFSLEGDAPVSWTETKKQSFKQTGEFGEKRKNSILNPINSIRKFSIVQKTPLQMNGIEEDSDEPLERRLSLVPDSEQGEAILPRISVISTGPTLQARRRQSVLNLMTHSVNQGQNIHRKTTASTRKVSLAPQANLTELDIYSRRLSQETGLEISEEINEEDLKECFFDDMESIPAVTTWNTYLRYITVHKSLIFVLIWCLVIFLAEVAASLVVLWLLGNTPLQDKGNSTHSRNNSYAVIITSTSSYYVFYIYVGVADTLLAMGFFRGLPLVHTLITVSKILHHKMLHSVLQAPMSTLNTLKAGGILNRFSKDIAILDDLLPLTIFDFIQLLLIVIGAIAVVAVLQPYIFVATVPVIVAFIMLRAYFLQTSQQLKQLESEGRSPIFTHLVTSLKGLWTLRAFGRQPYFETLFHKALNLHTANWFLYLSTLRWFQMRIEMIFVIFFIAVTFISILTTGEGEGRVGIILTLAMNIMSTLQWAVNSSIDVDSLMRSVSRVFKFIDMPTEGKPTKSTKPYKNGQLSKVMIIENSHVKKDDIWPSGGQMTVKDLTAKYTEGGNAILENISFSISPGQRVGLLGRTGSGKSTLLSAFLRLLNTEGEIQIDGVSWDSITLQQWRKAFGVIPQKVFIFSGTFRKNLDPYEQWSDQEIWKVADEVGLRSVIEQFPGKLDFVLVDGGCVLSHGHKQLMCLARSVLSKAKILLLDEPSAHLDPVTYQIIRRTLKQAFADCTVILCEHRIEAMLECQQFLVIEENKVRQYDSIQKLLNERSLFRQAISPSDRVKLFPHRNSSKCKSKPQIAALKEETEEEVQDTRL

[2] = target: T1, CFTR; experiment: T84 assay (FLIPR membrane potential); assay type: cell-based; design: Human colonic T84 cells are acquired from the European Collection of Cell Cultures (ECACC); host or cells: T84 human colonic cells
Procedure: (§1) For example, Human colonic T84 cells can be acquired from the European Collection of Cell Cultures (ECACC) and grown in standard culture conditions as described by the supplier. On the day before assay 25,000 T84 cells per well are plated into standard black walled, clear bottom 384-well assay plates in standard growth medium consisting of DMEM:F12 with 10% FBS and incubated overnight. On the day of the assay the plates are washed using a standard assay buffer (HBSS with 10 mM Hepes) and incubated for 15 minutes in serum free cell culture medium before the addition of a commercially available membrane potential sensitive fluorescent dye (FLIPR Red membrane potential dye, Molecular Devices Corporation). T84 cells are incubated with the FLIPR Red membrane potential dye for 45 minutes in the presence and absence of test compound before being transferred to a commercially available fluorescence imaging plate reader (FLIPR384, Molecular Devices Corporation). Fluorescence levels are monitored continuously every second for 150 seconds; after an initial 10 second baseline, CFTR channel activity is stimulated through the addition of 10 μM forskolin in the presence of 100 μM of the phosphodiesterase inhibitor iso-butyl-methylxanthine (IBMX). Addition of the forskolin leads to the activation of intracellular adenylyl cylase 1, elevating cAMP levels and results in the phosphorylation and opening of CFTR anion channels. CFTR channel opening causes chloride ion efflux and subsequent depolarization of the cells, which is measured by an increase in fluorescence. CFTR inhibitor compounds prevent cell depolarization and the associated increase in fluorescence.
as §1, with “Human colonic” for “For example, Human colonic”, “T84 cells are acquired from” for “T84 cells can be acquired from”, “(ECACC) and are grown in” for “(ECACC) and grown in”, “with 10 Mm Hepes) and” for “with 10 mM Hepes) and”, “1, elevating Camp levels and” for “1, elevating cAMP levels and”
Target sequence in this assay (P13569 whole entry): as the sequence (P13569 whole entry, species assumed) above

[3] = test system: mice (CD1 strain), intestinal loops with cholera toxin (CTX); conditions: mouse, in vivo
[4] = target: T1, CFTR; experiment: CHO-CFTR IonWorks Quattro (IWQ) population patch clamp; assay type: cell-based; design: expressed in transfected cells; host or cells: CHO-K1 cells, stably transfected; conditions: @-60 mV; room temperature
Procedure: Currents were recorded at room temperature (21-23° C.) using IonWorks® Quattro™ (Molecular Devices, Inc) Population Patch Clamp (PPC) mode automated electrophysiology recording techniques.
Before recording commenced, a T175 culture flask containing CHO-K^1 cells stably transfected with the CFTR gene were washed with 10 ml of Dulbecco's phosphate buffered saline (without Ca^2+ or Mg^2+) followed by addition of 1 ml of 0.05% Trypsin EDTA (Invitrogen, cat no. 25300054) to the flask. After 1-2 minutes incubation, flasks were gently tapped to lift the cells from the substrate and 10 ml of complete media added. Cells were spun at 1,000 rpm for 3 minutes, followed by re-suspension of the pellet in external buffer and use of the resulting cell suspension at a density of 2×10^6 cells per ml. The external solution used for recording was Dulbecco's phosphate buffered saline (Invitrogen, cat no. 14040091) and contained (in mM) 137.9 NaCl, 2.7 KCl, 0.901 CaCl2, 0.5 MgCl2.6H2O, 1.5 KH2PO4, 8.1 Na2HPO4.7H2O. The internal solution contained the following (in mM): 10 NaCl (Sigma, cat no. S7653), 90 KGluconate (Sigma, cat no. G4500), 30 KF (Sigma, cat no. 60238), 1 MgCl2 (Fluka, cat no. 63020), 5 EGTA (Sigma, cat no. E3889), 10 HEPES (Sigma, cat no. H3375); pH 7.4 with KOH. […]
Target sequence in this assay (P13569 whole entry, species assumed): as above

O=C(c1nnc(-c2cc(Cl)c(O)c(Cl)c2)o1)N1CCN(c2cccc(C(F)(F)F)c2)CC1 [Compound 4, (5-(3,5-dichloro-4-hydroxyphenyl)-1,3,4-oxadiazol-2-yl)(4-(3-(trifluoromethyl)phenyl)piperazin-1-yl)methanone]
IC50 [1]: 10.6 µM
IC50 [2]: 16.9 µM
closed loop % inhibition [3]: 92.5%
IC50 [4]: 4.71 µM
